Laboratory results from patent US12383534B2, “Methods for treating cancer” (REGENTS OF THE UNIVERSITY OF MINNESOTA, priority 2021, dated 2025).

Key:
[1] = test system: Kitra-SRS cells (CIC-DUX4 sarcoma cell line); experiment: Cell viability (ATP) assay in Kitra-SRS cells; type: cell-based, human; details: day 2
Procedure: (§1) Basal media were purchased from HyClone, fetal bovine serum (FBS) was from PeakSerum (Ps-FB3, lot 293Q16), and Glutamax (Glu) and Penicillin/Streptomycin (P/S) were from GIBCO. NCC-CDS-X1 (CIC-DUX4 sarcoma cell line, a generous gift from Tadashi Kondo) cell line was cultured in RPMI with 10% FBS, Glu and P/S, Kitra-SRS (CIC-DUX4 sarcoma cell line, a generous gift from Hidetatsu Otani), 3T3, 293T and C2C12 cell lines were cultured in DMEM/10% FBS/Glu/P/S. The immortalized human myoblast LHCN-M2 cell line was cultured in proliferation medium: F10 supplemented with 20% FBS, 2-mercaptoethanol 1× (GIBCO), 10^−9 M dexamethasone (Sigma), 10 ng/mL bFGF (Peprotech), and Glu/P/S. All cells were cultured at 37° C. in a 5% CO2 atmosphere.
(§2) Cell lines were plated in a 96 well dish (1×10^5 cells/well), and the following day were treated with iP300w or its stereoisomers. ATP assays were performed using CellTiter-Glo® Luminescent Cell Viability Assay (Promega) according to the manufacturer's instructions. Luminescence was analyzed on POLARstar Optima Microplate Reader (BMG Labtech, Offenburg, Germany).
To evaluate the consequences of iP300w treatment of CDS cells, its effects on both monolayer cultures as well as 3D spheres was determined in both CDS cell lines. […] Using the cell viability assay, it was determined that 0.003 μM was the lowest effective concentration on day 2 in both lines (FIG. 2B).

[2] = test system: NCC-CDS-X1 spheres; experiment: Spheroid assay; type: cell-based, human; details: day 4 and 8
Procedure: For spheroid formation assays, 2.5×10^4 NCC-CDS-X1 cells were seeded into 96-well plates (96-well Clear Flat Bottom Ultra-Low Attachment Microplate; Corning, Inc., Corning, NY, USA) in MEM/10% FBS media. Treatment with iP300w was started two days after the plating when the cells formed compact spheres.

[3] = test system: CIC-DUX4 induced transcriptome in NCC-CDS-X1 cells; experiment: RNA-seq transcriptional profile of NCC-CDS-X1 cells; type: cell-based, human; details: for number of genes changed by more than 10-fold / number of down-regulated genes (2-fold or greater) / number of up-regulated genes (2-fold or greater): 0.3 μM
Procedure: (§3) RNA was extracted using an RNA extraction kit (Zymo) and cDNA was made using 0.5 μg total RNA with oligo-dT primer and Verso cDNA Synthesis Kit (Thermo Scientific) following the manufacturer's instructions. qPCRs were performed by using Premix Ex Taq (Probe qPCR, Takara) or SYBR-green. Gene expression levels were normalized to that of GAPDH and analyzed with 7500 System Software using the ACT method (Applied Biosystems). RNA-seq library preparation was done with 500 ng total RNA from NCC-CDS-X1 cells treated for 4 or 24 hours with iP300w (0.3 μM) using the Swift Rapid RNA Library Kit (SwiftBioscience). 36 base paired-end sequencing was performed on an Illumina NextSeq instrument at the University of Minnesota Genomics Center.
Paired-end Illumina sequencing reads were trimmed with TrimGalore (0.6.0) and transcript abundance was quantified using the human Gencode annotations (v34) using Salmon (v 1.2.1) with the GC-bias correction option. Counts were imported into R (v 4.0.2) using tximeta (v 1.6.3). Differentially expressed genes were identified with DESeq2 (v 1.28.1) and figures were made with the ComplexHeatmap (v 2.4.3), clusterProfiler (v 3.16.1) and ggplot2 (v 3.3.2) R packages. Sequencing reads and processed data have been deposited into GEO under the accession number GSE165729.
Next, global transcriptional profiles of NCC-CDS-X1 cells treated with iP300w were investigated. […] Among these differentially expressed genes, 170 and 244 were changed by more than 10-fold at 4 hour and 24 hours, respectively (FIG. 3A).

[4] = test system: CIC-DUX4 target genes ETV1, 4, and 5; experiment: RT-qPCR for CIC-DUX4 target genes in NCC-CDS-X1 cells; type: cell-based, human; details: NCC-CDS-X1, 24 hours, 0.03 and 0.3 μM
Procedure: as §3
Next, the effect of the stereoisomers on the CIC-DUX4 target genes in cells cultured with the compounds for 24 hours was analyzed.

[5] = test system: NCC-CDS-X1 cells (CIC-DUX4 sarcoma cell line); experiment: Cell viability (ATP) assay in NCC-CDS-X1 cells; type: cell-based, human
Procedure: as §1, §2
The activity of the various iP300w stereoisomers against NCC-CDS-X1 cells was evaluated. Cultures were treated with serial dilutions, ranging from 0.003 μM to 3.0 μM, for up to 96 hours. In cells treated with iP300w, a significant decrease in cell viability was evident at the lowest concentration (0.003 μM) at 48 and 96 hours (FIG. 3A). The effect was dose- and time-dependent. […] (FIG. 2B and FIG. 9).

[6] = test system: p300 and CBP; details: in vitro and in vivo; cited from earlier work
[7] = Cell viability (ATP) assay in colorectal cancer cells; type: cell-based; details: cancer and colorectal cell lines expected to have a general p300/CBP dependence
Procedure: as §2
(§4) Pancreatic and colorectal cancer cell lines were treated with iP300w to further distinguish its specificity to CDS from general cytotoxicity. p300/CBP have been correlated with the invasive and migratory properties of pancreatic and colorectal cancers (Iyer, N. G. et al., Proceedings of the National Academy of Sciences of the United States of America 101, 7386-7391 (2004); and Paladino, D. et al, Oncotarget 7, 7253-7267 (2016)). […] This further supports the specific efficacy of iP300w against cancers bearing p300-dependent oncogenic fusion transcription factors (such as CIC-DUX4), vis-à-vis cancers that may show some degree of growth inhibition by iP300w due simply to p300-dependent proliferative pathways.

[8] = test system: HTC116, MKN28, KATO3 colorectal cancer cells; experiment: as above; type: cell-based; details: serial dilutions, 48 hours
Procedure: as §2, §4

CNC(=O)Cn1cc(-c2ccc3c(c2)[C@H](F)C[C@]32NC(=O)N(CC(=O)N(Cc3ccc(F)cc3)[C@@H](C)C(F)(F)F)C2=O)cn1 (single isomer, unassigned) [iP300w]
lowest effective concentration in cell viability assay [1]: 0.003 µM | effect on CDS cell sphere formation and growth [2]: dose and time inhibitory effect | number of genes changed by more than 10-fold ([3]; 4 hour): 170 genes | number of down-regulated genes (2-fold or greater) ([3]; 4 hours post-treatment): 1182 genes | number of up-regulated genes (2-fold or greater) ([3]; 4 hours post-treatment): 872 genes | number of genes changed by more than 10-fold ([3]; 24 hours): 244 genes | number of down-regulated genes (2-fold or greater) ([3]; 24 hours post-treatment): 2042 genes | number of up-regulated genes (2-fold or greater) ([3]; 24 hours post-treatment): 1658 genes | effect on p21 (CDKN1A) expression ([3]; 24 hours): upregulated in the 24 hours | effect on key transformation-regulatory genes ETV1, ETV4 and CCNE1 ([3]; set of 165 CIC-DUX4 targets, 4 hours): significantly downregulated within 4 hours | effect on CIC-DUX4 targets ([3]; set of 165 CIC-DUX4 targets, 24 hours): vast majority of CIC-DUX4 targets to be downregulated | down-regulation of direct CIC-DUX4 targets ETV1, 4, and 5 [4]: Significant down-regulation | effective concentration on CDS cells ([5]; CDS cells, studies herein): 0.003 µM | lowest concentration with significant decrease in cell viability ([5]; NCC-CDS-X1, 48 and 96 hours, serial dilutions 0.003 to 3.0 μM): 0.003 µM | lowest effective concentration in cell viability assay ([5]; NCC-CDS-X1, day 2): 0.003 µM | activity relative to A-485 in the cell-based assays ([5]; cell-based assays): about two orders of magnitude more active than A-485 | inhibition of acetylation by p300 and CBP [6]: inhibit acetylation by p300 and CBP both in vitro and in vivo | concentration at which growth inhibition is first observed [7]: ≥ 0.3 µM | effect on cell viability [8]: no significant effect on cell viability
